Data reported in ChEMBL document CHEMBL5390227, “Development of QTMP: A promising anticancer agent through NP-Privileged Motif-Driven structural modulation” (Bioorg Med Chem, 2023).
The source made the active and inactive calls. No cut-off for these calls is given here.

Columns and labels:
HeLa [1] = experiment: Antiproliferative activity against human HeLa cells assessed as inhibition of cell growth at 25 nM measured after 24 hrs by SRB assay relative to control; assay type: functional
Tubulin (Homo sapiens) [2] = biological target: T1, Tubulin (Homo sapiens) (UniProt P68371+Q9H4B7+P0DPH7+P68366+Q13509+Q71U36+P04350+Q3ZCM7+P07437+P68363+Q9BQE3+Q6PEY2+Q13885+Q9BVA1+Q9BUF5); experiment: Inhibition of tubulin polymerization in human A549 cells assessed as induction of interphase microtubule disorganization at 10 nM measured after 24 hrs by Hoechst-33258 staining based immunofluorescence analysis; assay type: cell-based
HeLa [3] = experiment: Antiproliferative activity against human HeLa cells assessed as reduction in cell growth by SRB assay; assay type: functional, cell-based
A549 [4] = experiment: Antiproliferative activity against human A549 cells assessed as reduction in cell growth by SRB assay; assay type: functional, cell-based
T47D = experiment: Antiproliferative activity against human T47D cells assessed as reduction in cell growth by SRB assay; assay type: functional, cell-based
MDA-MB-231 = experiment: Antiproliferative activity against human MDA-MB-231 cells assessed as reduction in cell growth by SRB assay; assay type: functional, cell-based
MCF7 = experiment: Antiproliferative activity against human MCF7 cells assessed as reduction in cell growth by SRB assay; assay type: functional, cell-based
[5] = Antiproliferative activity against human H357 cells assessed as reduction in cell growth by SRB assay; assay type: functional, cell-based
[6] = Cytotoxicity against mouse L929 cells assessed as reduction in cell growth by SRB assay; assay type: toxicity, cell-based
B16-F10 = experiment: Antiproliferative activity against mouse B16-F10 cells assessed as reduction in cell growth by SRB assay; assay type: functional, cell-based
A549 [7] = experiment: Induction of cell cycle arrest in human A549 cells assessed as accumulation of cells at G1 phase at 10 nM incubated for 12 hrs by propidium iodide/RNase-staining based flow cytometry analysis (reference value: 67 +/- 11%); assay type: functional
A549 [8] = experiment: Induction of cell cycle arrest in human A549 cells assessed as accumulation of cells at S phase at 10 nM incubated for 12 hrs by propidium iodide/RNase-staining based flow cytometry analysis (reference value: 22 +/- 6%); assay type: functional
A549 [9] = experiment: Induction of cell cycle arrest in human A549 cells assessed as accumulation of cells at G1 phase at 20 nM incubated for 12 hrs by propidium iodide/RNase-staining based flow cytometry analysis (reference value: 67 +/- 11%); assay type: functional
A549 [10] = experiment: Induction of cell cycle arrest in human A549 cells assessed as accumulation of cells at G2/M phase at 10 nM incubated for 12 hrs by propidium iodide/RNase-staining based flow cytometry analysis (reference value: 11 +/- 4%); assay type: functional
A549 [11] = experiment: Induction of cell cycle arrest in human A549 cells assessed as accumulation of cells at S phase at 20 nM incubated for 12 hrs by propidium iodide/RNase-staining based flow cytometry analysis (reference value: 22 +/- 6%); assay type: functional
A549 [12] = experiment: Induction of cell cycle arrest in human A549 cells assessed as accumulation of cells at G2/M phase at 20 nM incubated for 12 hrs by propidium iodide/RNase-staining based flow cytometry analysis (reference value: 11 +/- 4%); assay type: functional
A549 [13] = experiment: Cytotoxicity against human A549 cells assessed as proportion of live cells at 10 nM incubated for 24 hrs by PI-staining based flow cytometry analysis (reference value: 90.1 to 90.2%); assay type: functional
A549 [14] = experiment: Cytotoxicity against human A549 cells assessed as proportion of dead cells at 20 nM incubated for 24 hrs by PI-staining based flow cytometry analysis (reference value: 9.8 to 9.9%); assay type: functional
A549 [15] = experiment: Cytotoxicity against human A549 cells assessed as proportion of dead cells at 10 nM incubated for 24 hrs by PI-staining based flow cytometry analysis (reference value: 9.8 to 9.9%); assay type: functional
A549 [16] = experiment: Cytotoxicity against human A549 cells assessed as proportion of live cells at 20 nM incubated for 24 hrs by PI-staining based flow cytometry analysis (reference value: 90.1 to 90.2%); assay type: functional
[17] = Selectivity index, ratio of IC50 for cytotoxicity against mouse L929 cells to IC50 for antiproliferative activity against mouse B16-F10 cells; assay type: toxicity, cell-based; details: L929 cells versus B16-F10 cells, read-out: Ratio IC50
[18] = Aqueous stability of the compound in PBS assessed as absorbance at 40 uM measured at pH 7.2 after 20 days by spectrophotometer analysis; assay type: physicochemical; details: time 20 day, read-out: Stability
Tubulin (Homo sapiens) [19] = biological target: T1, Tubulin (Homo sapiens); experiment: Inhibition of tubulin polymerization in human A549 cells assessed as induction of interphase microtubule disorganization at 20 nM measured after 24 hrs by Hoechst-33258 staining based immunofluorescence analysis; assay type: cell-based
Tubulin (Homo sapiens) [20] = biological target: T1, Tubulin (Homo sapiens); experiment: Inhibition of tubulin polymerization in human A549 cells assessed as reduction in fluorescence intensity of microtubules at 10 nM measured after 24 hrs by Hoechst-33258 staining based immunofluorescence analysis relative to control; assay type: cell-based
Tubulin (Homo sapiens) [21] = biological target: T1, Tubulin (Homo sapiens); experiment: Inhibition of tubulin polymerization in human A549 cells assessed as reduction in fluorescence intensity of microtubules at 20 nM measured after 24 hrs by Hoechst-33258 staining based immunofluorescence analysis relative to control; assay type: cell-based
Tubulin (Homo sapiens) [22] = biological target: T1, Tubulin (Homo sapiens); experiment: Inhibition of tubulin polymerization in human A549 cells assessed as induction of mitotic spindle microtubules depolymerization at 20 nM measured after 24 hrs by Hoechst-33258 staining based immunofluorescence analysis; assay type: cell-based
Tubulin (Homo sapiens) [23] = biological target: T1, Tubulin (Homo sapiens); experiment: Inhibition of tubulin polymerization in human HeLa cells assessed as induction of interphase microtubule depolymerization at 10 to 20 nM measured after 24 hrs by Hoechst-33258 staining based immunofluorescence analysis; assay type: cell-based; details: dose 10-20 nM
Tubulin (Homo sapiens) [24] = biological target: T1, Tubulin (Homo sapiens); experiment: Inhibition of tubulin polymerization in human HeLa cells assessed as induction of mitotic microtubule depolymerization at 10 to 20 nM measured after 24 hrs by Hoechst-33258 staining based immunofluorescence analysis; assay type: cell-based; details: dose 10-20 nM
Capra hircus [25] = organism: Capra hircus; experiment: Inhibition of goat brain tubulin polymerization at 0.5 uM incubated for 10 mins followed by GTP addition and measured for 35 mins by spectrophotometric analysis relative to control; details: time 45.0 min
Capra hircus [26] = organism: Capra hircus; experiment: Inhibition of goat brain tubulin polymerization at 1 uM incubated for 10 mins followed by GTP addition and measured for 35 mins by spectrophotometric analysis relative to control; assay type: tissue-based; details: time 45.0 min
Capra hircus [27] = organism: Capra hircus; experiment: Inhibition of goat brain tubulin polymerization at 2 uM incubated for 10 mins followed by GTP addition and measured for 35 mins by spectrophotometric analysis relative to control; details: time 45.0 min
Capra hircus [28] = organism: Capra hircus; experiment: Inhibition of goat brain tubulin polymerization at 3 uM incubated for 10 mins followed by GTP addition and measured for 35 mins by spectrophotometric analysis relative to control; assay type: tissue-based; details: time 45.0 min
Capra hircus [29] = organism: Capra hircus; experiment: Inhibition of goat brain tubulin polymerization at 5 uM incubated for 10 mins followed by GTP addition and measured for 35 mins by spectrophotometric analysis relative to control; details: time 45.0 min
[30] = Inhibition of goat brain tubulin polymerization incubated for 10 mins followed by GTP addition and measured for 35 mins by spectrophotometric analysis; assay type: tissue-based, Capra hircus
Capra hircus [31] = organism: Capra hircus; experiment: Inhibition of goat brain tubulin polymerization assessed as reduction in initial rate of tubulin polymerization incubated for 10 mins followed by GTP addition and measured for 35 mins by spectrophotometric analysis; assay type: tissue-based; details: dose 2-6 µM, time 45.0 min
[32] = Binding affinity to goat brain tubulin assessed as increase in fluorescence intensity incubated for 30 mins by spectrofluorometric analysis; assay type: tissue-based, Capra hircus
Capra hircus [33] = organism: Capra hircus; experiment: Binding affinity to colchicine binding site of goat brain tubulin assessed as tubulin-compound complex fluorescence intensity at 10 uM preincubated with CA-4 for 30 mins followed by compound addition and measured after 30 mins by fluorescence based analysis
Capra hircus [34] = organism: Capra hircus; experiment: Binding affinity to colchicine binding site of goat brain tubulin assessed as tubulin-compound complex fluorescence intensity at 10 uM preincubated with podophyllotoxin for 30 mins followed by compound addition and measured after 30 mins by fluorescence based analysis
[35] = Aqueous stability of the compound in PBS assessed as absorbance at 40 uM measured at pH 7.2 after 24 hrs by spectrophotometer analysis; assay type: physicochemical; details: read-out: Stability

COc1cc(-c2nc(N)[nH]c2-c2ccnc3cc(Cl)ccc23)cc(OC)c1OC
inhibition at 0.025 µM (HeLa [1]): 11%

COc1cc(-c2nc(N)[nH]c2-c2ccc3ccccc3c2)cc(OC)c1OC
inhibition at 0.025 µM (HeLa [1]): 34%

COc1cc(-c2nc(N)[nH]c2-c2ccc3ccccc3n2)cc(OC)c1OC
inhibition (Tubulin (Homo sapiens) [2]): Active
inhibition at 0.025 µM (HeLa [1]): 74%
IC50 (HeLa [3]): 10 nM
IC50 (A549 [4]): 12 nM
IC50 (T47D): 47 nM
IC50 (MDA-MB-231): 13 nM
IC50 (MCF7): 20 nM
IC50 [5]: 15 nM
IC50 [6]: 69 nM
IC50 (B16-F10): 25 nM
Activity (A549 [7]): 51%
Activity (A549 [8]): 20%
Activity (A549 [9]): 37%
Activity (A549 [10]): 29%
Activity (A549 [11]): 19%
Activity (A549 [12]): 44%
Activity (A549 [13]): 76.7%
Activity (A549 [14]): 35.9%
Activity (A549 [15]): 22%
Activity (A549 [16]): 62.7%
selectivity ratio [17]: 2.76
remaining at 480 h, 40 µM [18]: 47%
inhibition (Tubulin (Homo sapiens) [19]): Active
inhibition (Tubulin (Homo sapiens) [20]): 23.6%
inhibition (Tubulin (Homo sapiens) [21]): 53.2%
inhibition (Tubulin (Homo sapiens) [22]): Active
inhibition (Tubulin (Homo sapiens) [23]): Active
inhibition (Tubulin (Homo sapiens) [24]): Active
inhibition (Capra hircus [25]): 8%
inhibition (Capra hircus [26]): 11%
inhibition (Capra hircus [27]): 28%
inhibition (Capra hircus [28]): 45%
inhibition (Capra hircus [29]): 75%
IC50 [30]: 3400 nM
inhibition (Capra hircus [31]): Dose-Dependent Effect
Kd [32]: 5000 nM
Activity (Capra hircus [33]): inactive
Activity (Capra hircus [34]): inactive

COc1ccc(/C=C\c2cc(OC)c(OC)c(OC)c2)cc1O [COMBRETASTATIN A4]
inhibition at 0.025 µM (HeLa [1]): 57%
IC50 (HeLa [3]): 24 nM
IC50 (A549 [4]): 43 nM
IC50 (T47D): 407 nM
IC50 (MDA-MB-231): 100 nM
IC50 (MCF7): 24 nM
IC50 [5]: 3.5 nM
IC50 [6]: 117 nM
IC50 (B16-F10): 82 nM
Activity (A549 [9]): 65%
Activity (A549 [11]): 18%
Activity (A549 [12]): 17%
Activity (A549 [14]): 7.37%
Activity (A549 [16]): 90.4%
remaining at 24 h, 40 µM [35]: 47%

COc1cc(-c2nc(N)[nH]c2-c2ccc3ncccc3c2)cc(OC)c1OC
inhibition at 0.025 µM (HeLa [1]): 9%

COc1cc(-c2nc(N)[nH]c2-c2cccc3ncccc23)cc(OC)c1OC
inhibition at 0.025 µM (HeLa [1]): 27%

COc1cc(-c2nc(N)[nH]c2-c2cnc3ccc(Cl)cc3c2)cc(OC)c1OC
inhibition at 0.025 µM (HeLa [1]): 11%

COc1cc(-c2nc(N)[nH]c2-c2cccc3cccnc23)cc(OC)c1OC
inhibition at 0.025 µM (HeLa [1]): 32%

COc1cc(-c2nc(N)[nH]c2-c2ccc3nc(C)ccc3c2)cc(OC)c1OC
inhibition at 0.025 µM (HeLa [1]): 5%

COc1cc(-c2nc(N)[nH]c2-c2cccc3cnccc23)cc(OC)c1OC
inhibition at 0.025 µM (HeLa [1]): 43%

COc1cc(-c2nc(N)[nH]c2-c2cncc3ccccc23)cc(OC)c1OC
inhibition at 0.025 µM (HeLa [1]): 47%
IC50 (HeLa [3]): 41 nM

COc1ccc2ncc(-c3[nH]c(N)nc3-c3cc(OC)c(OC)c(OC)c3)cc2c1
inhibition at 0.025 µM (HeLa [1]): 30%

COc1cc(-c2nc(N)[nH]c2-c2cnc3ccc(C)cc3c2)cc(OC)c1OC
inhibition at 0.025 µM (HeLa [1]): 8%

COc1cc(-c2nc(N)[nH]c2-c2ccc3cnccc3c2)cc(OC)c1OC
inhibition at 0.025 µM (HeLa [1]): 46%
IC50 (HeLa [3]): 46 nM

COc1cc(-c2nc(N)[nH]c2-c2ccnc3ccccc23)cc(OC)c1OC
inhibition at 0.025 µM (HeLa [1]): 7%
